SMILES strings stand for the structures.

In assay [1] the target is Cyclin-dependent kinase 15 (Homo sapiens) (UniProt Q96Q40). The experiment in a line: Selectivity interaction (KinomeScan (DiscoverX)) EUB0000595a CDK15. As to conditions: at 10 µM.
Assay [2] concerns the target Serine/threonine-protein kinase 10 (Homo sapiens) (UniProt O94804). The assay can be described thus: Selectivity interaction (ActivX KiNativ screen (ex vivo kinase selectivity in human PBMCs)) EUB0001619a STK10. The format is cell-based. As to conditions: PBMC, at 1 µM.
In assay [3] the target is T1, Serine/threonine-protein kinase Sgk3 (Homo sapiens) (UniProt Q96BR1).
T1 sequence (whole entry): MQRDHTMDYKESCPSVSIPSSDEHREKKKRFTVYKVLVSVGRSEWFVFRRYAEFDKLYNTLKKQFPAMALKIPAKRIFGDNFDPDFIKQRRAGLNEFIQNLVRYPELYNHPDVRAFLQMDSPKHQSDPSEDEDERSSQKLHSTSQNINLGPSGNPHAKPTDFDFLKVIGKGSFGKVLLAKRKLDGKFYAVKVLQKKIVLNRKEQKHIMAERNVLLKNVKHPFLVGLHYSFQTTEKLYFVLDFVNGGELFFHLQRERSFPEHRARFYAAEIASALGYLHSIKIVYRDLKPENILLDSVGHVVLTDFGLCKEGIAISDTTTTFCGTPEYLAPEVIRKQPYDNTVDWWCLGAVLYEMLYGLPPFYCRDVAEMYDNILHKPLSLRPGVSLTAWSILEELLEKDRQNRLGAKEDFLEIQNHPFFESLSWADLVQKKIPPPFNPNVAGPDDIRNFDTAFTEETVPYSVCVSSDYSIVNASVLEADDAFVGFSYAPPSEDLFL
The assay can be described thus: Selectivity interaction (ActivX KiNativ screen (ex vivo kinase selectivity in human PBMCs)) EUB0001619a SGK3. The class given is cell-based. The note with it: PBMC, at 1 µM.

Assay [4] concerns the target Serine/threonine-protein kinase WNK3 (Homo sapiens) (UniProt Q9BYP7). The assay can be described thus: Selectivity interaction (KinomeScan (DiscoverX)) EUB0000607a WNK3. The note with it: at 10 µM.
Assay [5] deals with T2, Phosphatidylinositol 5-phosphate 4-kinase type-2 gamma (Homo sapiens) (UniProt Q8TBX8).
T2 sequence (whole entry): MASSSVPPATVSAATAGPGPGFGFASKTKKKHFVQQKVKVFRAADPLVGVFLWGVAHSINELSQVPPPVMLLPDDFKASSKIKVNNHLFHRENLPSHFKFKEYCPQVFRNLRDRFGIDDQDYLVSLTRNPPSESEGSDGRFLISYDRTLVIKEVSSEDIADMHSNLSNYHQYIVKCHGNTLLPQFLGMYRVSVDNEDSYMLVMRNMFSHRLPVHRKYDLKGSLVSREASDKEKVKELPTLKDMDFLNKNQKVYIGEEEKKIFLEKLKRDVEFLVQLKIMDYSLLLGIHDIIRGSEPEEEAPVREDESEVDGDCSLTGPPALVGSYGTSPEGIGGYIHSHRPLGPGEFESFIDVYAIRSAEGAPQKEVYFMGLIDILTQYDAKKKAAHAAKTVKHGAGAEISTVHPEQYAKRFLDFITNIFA
The assay can be described thus: Selectivity interaction (KinomeScan (DiscoverX)) EUB0000045b PIP4K2C.

Assay [6] deals with T3, Phosphatidylinositol 4,5-bisphosphate 3-kinase catalytic subunit delta isoform (Homo sapiens) (UniProt O00329).
T3 sequence (whole entry): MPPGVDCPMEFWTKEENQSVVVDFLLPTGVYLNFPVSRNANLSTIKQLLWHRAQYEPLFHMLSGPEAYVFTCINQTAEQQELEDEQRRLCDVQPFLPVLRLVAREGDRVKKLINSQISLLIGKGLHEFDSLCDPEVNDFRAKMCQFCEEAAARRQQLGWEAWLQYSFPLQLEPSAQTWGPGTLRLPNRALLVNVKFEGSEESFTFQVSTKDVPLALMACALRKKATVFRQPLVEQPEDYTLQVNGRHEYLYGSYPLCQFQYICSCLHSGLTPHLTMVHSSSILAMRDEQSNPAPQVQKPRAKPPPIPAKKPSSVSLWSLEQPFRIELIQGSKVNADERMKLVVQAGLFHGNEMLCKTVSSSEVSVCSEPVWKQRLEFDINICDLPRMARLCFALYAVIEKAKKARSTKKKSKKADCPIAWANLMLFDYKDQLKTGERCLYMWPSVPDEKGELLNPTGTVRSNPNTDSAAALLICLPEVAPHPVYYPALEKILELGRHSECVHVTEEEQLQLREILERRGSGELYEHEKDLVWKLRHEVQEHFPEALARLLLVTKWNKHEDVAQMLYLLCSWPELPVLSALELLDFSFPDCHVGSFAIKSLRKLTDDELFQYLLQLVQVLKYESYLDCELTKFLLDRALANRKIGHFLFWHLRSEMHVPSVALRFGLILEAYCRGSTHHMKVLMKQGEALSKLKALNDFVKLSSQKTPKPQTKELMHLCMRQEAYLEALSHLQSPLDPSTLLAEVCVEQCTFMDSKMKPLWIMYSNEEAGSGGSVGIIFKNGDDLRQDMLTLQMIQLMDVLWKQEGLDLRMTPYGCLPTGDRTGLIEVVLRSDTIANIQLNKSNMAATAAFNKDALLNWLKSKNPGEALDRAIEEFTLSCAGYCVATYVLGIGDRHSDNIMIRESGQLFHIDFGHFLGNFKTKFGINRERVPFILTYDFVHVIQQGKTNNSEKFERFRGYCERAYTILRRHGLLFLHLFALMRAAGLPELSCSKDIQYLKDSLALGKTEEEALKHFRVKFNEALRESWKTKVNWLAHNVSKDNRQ
The experiment in a line: Selectivity interaction (KinomeScan (DiscoverX)) EUB0001049a PIK3CD. As to conditions: at 1 µM.

The target of assay [7] is Receptor tyrosine-protein kinase erbB-2 (Homo sapiens, UniProt P04626). The experiment in a line: Selectivity interaction (Kinase panel (33PanQinase(R) Activity Assay)) EUB0000877a ERBB2.
The target in assay [8] is Phosphatidylinositol 4,5-bisphosphate 3-kinase catalytic subunit beta isoform (Homo sapiens) (UniProt P42338). The assay can be described thus: Selectivity interaction (KinomeScan (DiscoverX)) EUB0000877a PIK3CB. As to conditions: at 10 µM.
Assay [9] has as its target Serine/threonine-protein kinase N2 (Homo sapiens, UniProt Q16513). The assay can be described thus: Selectivity interaction (KinomeScan (DiscoverX)) EUB0001079a PKN2. As to conditions: at 1 µM.

Chain of Phosphatidylinositol 4,5-bisphosphate 3-kinase catalytic subunit beta isoform (Homo sapiens) (P42338 whole entry, looked up, canonical isoform): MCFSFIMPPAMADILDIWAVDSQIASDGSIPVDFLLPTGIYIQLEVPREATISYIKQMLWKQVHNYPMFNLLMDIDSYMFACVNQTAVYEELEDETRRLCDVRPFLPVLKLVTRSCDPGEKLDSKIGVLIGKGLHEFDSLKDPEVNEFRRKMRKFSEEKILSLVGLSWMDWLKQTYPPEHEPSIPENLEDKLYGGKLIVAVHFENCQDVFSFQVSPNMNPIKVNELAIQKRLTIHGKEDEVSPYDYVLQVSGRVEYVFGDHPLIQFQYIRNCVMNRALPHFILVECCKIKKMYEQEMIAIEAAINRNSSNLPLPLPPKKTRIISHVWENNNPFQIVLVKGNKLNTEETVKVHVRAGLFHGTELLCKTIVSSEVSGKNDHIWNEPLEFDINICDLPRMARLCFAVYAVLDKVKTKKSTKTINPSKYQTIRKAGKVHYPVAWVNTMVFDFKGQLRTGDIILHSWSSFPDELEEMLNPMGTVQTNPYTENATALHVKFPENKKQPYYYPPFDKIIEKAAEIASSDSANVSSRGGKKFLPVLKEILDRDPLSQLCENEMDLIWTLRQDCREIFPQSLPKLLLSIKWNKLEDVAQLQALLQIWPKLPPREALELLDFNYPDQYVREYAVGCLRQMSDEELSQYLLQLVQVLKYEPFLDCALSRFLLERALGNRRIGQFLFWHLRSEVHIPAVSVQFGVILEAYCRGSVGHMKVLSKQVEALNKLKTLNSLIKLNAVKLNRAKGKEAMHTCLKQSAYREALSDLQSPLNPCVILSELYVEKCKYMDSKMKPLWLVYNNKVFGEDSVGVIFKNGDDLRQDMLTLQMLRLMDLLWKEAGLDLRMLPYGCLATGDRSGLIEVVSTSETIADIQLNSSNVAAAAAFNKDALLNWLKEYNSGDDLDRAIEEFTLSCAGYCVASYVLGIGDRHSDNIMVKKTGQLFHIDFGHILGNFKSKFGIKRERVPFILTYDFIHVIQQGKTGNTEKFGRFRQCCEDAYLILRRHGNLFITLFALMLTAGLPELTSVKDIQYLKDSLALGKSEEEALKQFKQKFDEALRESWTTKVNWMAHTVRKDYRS
Chain of Serine/threonine-protein kinase N2 (Q16513 whole entry, looked up): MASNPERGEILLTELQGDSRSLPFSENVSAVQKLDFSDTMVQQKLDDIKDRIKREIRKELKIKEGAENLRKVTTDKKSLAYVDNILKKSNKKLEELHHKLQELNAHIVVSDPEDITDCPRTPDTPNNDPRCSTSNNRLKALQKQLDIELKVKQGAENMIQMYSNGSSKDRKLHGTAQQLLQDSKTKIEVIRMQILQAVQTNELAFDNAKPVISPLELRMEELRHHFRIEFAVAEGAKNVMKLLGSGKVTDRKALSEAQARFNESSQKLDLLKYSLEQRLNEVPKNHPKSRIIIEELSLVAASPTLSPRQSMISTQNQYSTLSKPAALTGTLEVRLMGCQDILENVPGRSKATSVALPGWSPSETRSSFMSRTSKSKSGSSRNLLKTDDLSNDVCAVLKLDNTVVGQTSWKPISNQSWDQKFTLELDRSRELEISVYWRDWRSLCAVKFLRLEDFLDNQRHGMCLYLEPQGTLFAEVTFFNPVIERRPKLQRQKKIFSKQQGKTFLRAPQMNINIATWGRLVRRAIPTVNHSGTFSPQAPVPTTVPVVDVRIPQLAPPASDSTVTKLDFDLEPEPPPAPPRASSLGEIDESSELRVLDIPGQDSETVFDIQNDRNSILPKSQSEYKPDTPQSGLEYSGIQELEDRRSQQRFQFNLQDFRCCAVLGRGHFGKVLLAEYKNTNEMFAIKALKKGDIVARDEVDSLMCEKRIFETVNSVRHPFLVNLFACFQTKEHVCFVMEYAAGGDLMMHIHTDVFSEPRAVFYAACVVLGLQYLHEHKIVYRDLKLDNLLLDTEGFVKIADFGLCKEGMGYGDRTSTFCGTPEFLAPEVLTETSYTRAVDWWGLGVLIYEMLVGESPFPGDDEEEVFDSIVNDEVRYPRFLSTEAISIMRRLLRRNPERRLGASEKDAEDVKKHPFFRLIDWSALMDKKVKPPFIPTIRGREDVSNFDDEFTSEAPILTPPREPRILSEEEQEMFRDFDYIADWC
Chain of Serine/threonine-protein kinase WNK3 (Homo sapiens) (Q9BYP7 whole entry): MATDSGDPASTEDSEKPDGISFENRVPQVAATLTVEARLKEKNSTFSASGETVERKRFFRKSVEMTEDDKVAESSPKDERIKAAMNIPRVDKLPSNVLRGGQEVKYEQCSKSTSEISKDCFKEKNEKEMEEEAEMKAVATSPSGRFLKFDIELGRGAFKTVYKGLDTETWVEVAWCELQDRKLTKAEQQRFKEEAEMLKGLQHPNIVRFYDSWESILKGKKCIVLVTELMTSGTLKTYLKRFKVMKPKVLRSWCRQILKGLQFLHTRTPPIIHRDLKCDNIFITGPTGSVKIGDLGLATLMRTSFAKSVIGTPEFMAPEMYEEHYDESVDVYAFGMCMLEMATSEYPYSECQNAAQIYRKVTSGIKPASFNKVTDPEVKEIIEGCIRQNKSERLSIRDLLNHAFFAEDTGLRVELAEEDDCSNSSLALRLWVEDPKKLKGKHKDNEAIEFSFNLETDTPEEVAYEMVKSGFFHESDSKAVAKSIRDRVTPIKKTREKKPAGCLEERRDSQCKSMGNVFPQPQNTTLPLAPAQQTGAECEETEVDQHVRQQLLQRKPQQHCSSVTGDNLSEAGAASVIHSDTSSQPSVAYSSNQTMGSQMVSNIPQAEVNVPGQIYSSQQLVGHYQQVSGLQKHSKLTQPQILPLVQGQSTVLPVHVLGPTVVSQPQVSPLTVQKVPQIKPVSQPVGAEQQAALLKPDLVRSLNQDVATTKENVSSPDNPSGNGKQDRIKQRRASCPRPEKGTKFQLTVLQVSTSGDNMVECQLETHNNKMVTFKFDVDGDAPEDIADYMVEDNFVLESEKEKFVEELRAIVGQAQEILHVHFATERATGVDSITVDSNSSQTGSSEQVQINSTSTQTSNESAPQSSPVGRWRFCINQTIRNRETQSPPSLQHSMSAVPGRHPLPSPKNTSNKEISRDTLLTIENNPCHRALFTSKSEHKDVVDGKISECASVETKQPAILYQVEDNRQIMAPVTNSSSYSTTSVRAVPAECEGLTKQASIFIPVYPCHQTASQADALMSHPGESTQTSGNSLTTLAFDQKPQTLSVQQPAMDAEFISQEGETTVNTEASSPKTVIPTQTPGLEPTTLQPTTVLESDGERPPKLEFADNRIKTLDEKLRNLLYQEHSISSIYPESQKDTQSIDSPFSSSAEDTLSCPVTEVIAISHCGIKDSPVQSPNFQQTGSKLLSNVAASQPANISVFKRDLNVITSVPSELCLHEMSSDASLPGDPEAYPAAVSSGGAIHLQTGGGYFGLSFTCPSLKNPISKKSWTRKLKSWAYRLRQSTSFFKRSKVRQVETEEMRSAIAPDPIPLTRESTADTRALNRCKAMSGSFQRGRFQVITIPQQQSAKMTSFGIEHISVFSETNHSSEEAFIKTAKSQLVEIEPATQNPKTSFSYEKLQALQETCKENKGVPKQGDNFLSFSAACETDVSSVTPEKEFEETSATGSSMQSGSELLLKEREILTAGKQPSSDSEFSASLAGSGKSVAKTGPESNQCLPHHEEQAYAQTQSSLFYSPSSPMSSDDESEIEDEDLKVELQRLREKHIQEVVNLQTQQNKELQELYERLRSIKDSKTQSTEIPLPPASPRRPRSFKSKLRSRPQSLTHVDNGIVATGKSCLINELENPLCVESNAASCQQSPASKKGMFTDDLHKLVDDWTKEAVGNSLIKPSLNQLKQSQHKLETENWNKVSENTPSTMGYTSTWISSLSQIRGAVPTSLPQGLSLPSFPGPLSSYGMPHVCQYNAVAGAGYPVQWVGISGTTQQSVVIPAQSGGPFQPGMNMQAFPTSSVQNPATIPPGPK
Chain of Cyclin-dependent kinase 15 (Homo sapiens) (Q96Q40 whole entry): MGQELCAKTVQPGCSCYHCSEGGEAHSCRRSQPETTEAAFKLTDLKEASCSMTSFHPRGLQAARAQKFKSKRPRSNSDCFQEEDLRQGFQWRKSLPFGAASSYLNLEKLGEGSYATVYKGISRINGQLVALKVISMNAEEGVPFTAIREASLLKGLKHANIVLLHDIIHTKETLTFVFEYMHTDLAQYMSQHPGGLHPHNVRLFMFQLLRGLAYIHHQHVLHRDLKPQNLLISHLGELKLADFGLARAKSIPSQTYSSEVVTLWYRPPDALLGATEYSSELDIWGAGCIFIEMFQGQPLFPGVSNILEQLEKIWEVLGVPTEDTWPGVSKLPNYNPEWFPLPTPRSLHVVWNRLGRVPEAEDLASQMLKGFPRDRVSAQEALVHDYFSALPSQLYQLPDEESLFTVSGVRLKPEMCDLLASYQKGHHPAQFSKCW

In [1], `COCC(=O)NC/C=C/c1ccc2ncnc(Nc3ccc(Oc4ccc(C)nc4)c(C)c3)c2c1` [CP-724714] came in with a % of control of 71%.
As for `N#Cc1cccc(-c2c[nH]c3ncnc(N4CCOCC4)c23)c1`, the % of inhibition was 60% in assay [2] and -1% in [3].
In turn, `CNC(=O)Nc1ccc(-c2nc(N3CC4CCC(C3)O4)c3cnn(C4CCC5(CC4)OCCO5)c3n2)cc1` showed a % of control in assay [4] of 100%.
On to `C=CC(=O)Nc1cc(-n2c(=O)ccc3cnc4ccc(-c5ccc(NS(C)(=O)=O)cc5)cc4c32)ccc1C`, for which the % of control worked out at 5.6% in assay [5] (at 1 µM) and 3.9% in [5] (at 10 µM).
For the compound `COc1cc(Nc2nc(C)cc(-c3cnn4nc(OC)ccc34)n2)cc(C(F)(F)F)c1`, the % of control in [6] is 88%.
Usually IC50 stands for the concentration at which inhibition is half-maximal. `CCC(=O)N1CC[C@H](Nc2ncnc3c2CN(c2cnc(OC)c(C(F)(F)F)c2)CC3)C1` [LENIOLISIB]: in assay [7], the IC50 was more than 10 µM. Moreover, in assay [8], the % of inhibition was determined as 98%.
In assay [9], `Nc1cnc(N2CCc3cc(S(=O)(=O)Nc4c(F)cc(Cl)cc4F)cc(N4CCCC4=O)c32)nc1` [TP-020n] gave a % of control of 100%.

(Values after ChEMBL document CHEMBL5465560, “Selectivity Literature for EUbOPEN Chemogenomic Library” (2024).)
